The values below come from article PMC10886162, “Synthesis of Novel Artemisinin, Ciprofloxacin, and Norfloxacin Hybrids with Potent Antiplasmodial Activity” (Antibiotics, 2024).

For data set [1], the system named is 3D7 strain. Details: method as in PMID 30023664. Conditions: cited from earlier work.
For data set [2], the system named is CQ-resistant P. falciparum strain FcB1. Conditions: cited from earlier work.
Data set [3] relates to P. falciparum parasite strains (3D7, Dd2, and K1). Also on record: method as in PMID 31290221. Conditions: range over 3D7, Dd2 and K1 strains; cited from earlier work.
The test system of data set [4] is 3D7 P. falciparum strain. Details: method as in PMID 32676153. Conditions: cited from earlier work.
Data set [5] relates to mammalian and bacterial systems. Also on record: method as in PMID 32676153. The settings on record: cited from earlier work.
The test system of data set [6] is W2 P. falciparum strain. Details: method as in PMID 32676153. The settings on record: cited from earlier work.
Data set [7] deals with human primary fibroblasts AB943. Briefly: Cytotoxicity upon human primary fibroblasts AB943 (resazurin). The format is cell-based. Conditions: Fibroblast, 72 h, mean +/− SD of at least three independent experiments. As to the method: A cellular cytotoxicity evaluation was performed upon human primary fibroblasts AB943, as previously described. The assays were realized in 96-well plates in DMEM + Glutamax without phenol red medium containing 25 mM HEPES, a pH of 7.3, and 10% of fetal calf serum under a 5% CO2 atmosphere, at 37 °C. After trypsin treatment, the AB943 cells were seeded at 2000 cells per well in 100 μL. After 24 h of incubation, drugs diluted in the culture medium were added (100 μL per well). The drug stock solutions were prepared in dimethyl sulfoxide (DMSO). The final DMSO concentration in the cultures remained below 1%. Control cultures were constituted of cultures treated with DMSO instead of the drug. The cytotoxicity assay was based on the conversion of a redo-sensitive dye (resazurin) to a fluorescent product via viable cells. After 72 h of incubation, the resazurin solution was added in each well at a final concentration of 45 μM. The fluorescence was measured at 530 nm excitation and 590 nm emission wavelengths after 4 h of incubation. The percentage of the inhibition of cell growth was calculated by comparing the fluorescence of cells maintained in the presence of the drug to that in the absence of the drug. The concentration causing 50% growth inhibition (IC50) was obtained from the drug concentration–response curve, and the results were expressed as the mean values ± standard deviations determined from several experiments.

In data set [8] the test system is CQ-resistant P. falciparum FcB1 strain. Briefly: In vitro growth inhibition of P. falciparum FcB1 ([3H]-hypoxanthine incorporation). The data set is classed as cell-based, Plasmodium falciparum. The settings on record: for IC50: Plasmodium falciparum; for Selectivity Index (IC50 AB943/IC50 FcB1): ratio of cytotoxicity IC50 to antiplasmodial IC50 (FcB1). The method, then: (§1) The chloroquine-resistant FcB1/Colombia and Dd2/Indochina strains of Plasmodium falciparum were obtained from the Protist Collection of the National Museum of Natural History, Paris, France (n° MNHN-CEU-2016-224-PfFCB1 and MNHN-CEU-2016-222-PfDD2). The parasites were maintained in vitro on human erythrocytes in RPMI 1640 medium supplemented by 8% (v/v) heat-inactivated human serum, at 37 °C, under an atmosphere of 5% CO2. The human red blood cells and serum were provided by the Établissement Français du Sang under the C-CPSL-UNT approval no. 13/EFS/126. The in vitro drug susceptibility assays were measured by [^3H]-hypoxanthine incorporation, as previously described. The drug stock solutions were prepared in DMSO. Briefly, the assays were performed in 96-well plates. The compounds were diluted in the culture medium (100 μL per well). The parasite cultures (100 μL, 2% parasitaemia, and 1% final hematocrit) were then added to each well and incubated for 24 h at 37 °C prior to the addition of 0.5 μCi of [^3H]- hypoxanthine (GE Healthcare, Paris, France, 1 to 5 Ci·mmol/mL) per well. After a further incubation of 24 h, the plates were frozen and thawed. The cell lysates were then collected onto fiberglass filters and counted in a liquid scintillation spectrometer. The growth inhibition for each drug concentration was determined through a comparison of the radioactivity incorporated in the treated culture with that in the control culture maintained on the same plate. The drugs were first evaluated for a range of fixed concentrations of 50, 5, 0.5, 0.05, and 0.005 μg/mL. […] The IC50 value was obtained from the drug concentration–response curve, and the results were expressed in μM or nM as the mean values ± standard deviations determined from several independent experiments. Artesunate (46) was used as an antimalarial drug control.

Data set [9] deals with CQ-resistant Dd2 strain of P. falciparum. Briefly: In vitro growth inhibition of P. falciparum Dd2 ([3H]-hypoxanthine incorporation). The data set is classed as cell-based, Plasmodium falciparum. The settings on record: for IC50: Plasmodium falciparum, CQ-resistant Dd2, mean +/− SD of at least three independent experiments; for Selectivity Index (IC50 AB943/IC50 Dd2): ratio of cytotoxicity IC50 to antiplasmodial IC50 (Dd2). As to the method: as §1

[10] abbreviates: FCB1, CQ-resistant FcB1, mean +/− standard deviation of independent experiments (at least four in Tables 1-2, at least three in Tables 3-4).
The mark [11] stands for this setting: FCB1, Table 5, single compound (hybrid or AS alone).

The structures appear in SMILES notation.

Regarding `C[C@H]1[C@@H](O)O[C@@H]2O[C@@]3(C)CC[C@H]4[C@H](C)CC[C@@H]1[C@@]24OO3` [DHA, dihydroartemisinin], in data set [1], the concentration giving a half-maximal response (EC50) – broadly, the concentration giving half of the maximal effect – was 2.4 ± 0.4 nM.

Regarding `C[C@@H]1CC[C@H]2[C@@H](C)C(=O)O[C@@H]3O[C@@]4(C)CC[C@@H]1[C@]32OO4` [ART, artemisinin], the IC50 (in general, the concentration needed to halve the response being measured) in [2] is 55 ± 13.6 nM.

Turning to `CC1CCC2C(C)C(OC(=O)CCC(=O)OCCNc3ccc4ncnc(Nc5ccc(Cl)c(Cl)c5)c4c3)OC3OC4(C)CCC1C32OO4` (stereo not shown) [hybrid 3], in data set [1], the EC50 is 1.4 ± 0.4 nM.

Take `CC1CCC2C(C)C(OC(=O)CCC(=O)OCCNc3ccnc4cc(Cl)ccc34)OC3OC4(C)CCC1C32OO4` (stereo not shown) [hybrid 4]: in data set [3], the EC50 is 1.7 to 4.5 nM.

In the case of `CCN(CC)CCCC(C)Nc1ccnc2cc(Cl)ccc12` (stereo not shown) [CQ, chloroquine], the EC50 in data set [1] is 9.8 ± 2.8 nM.

As to `CCOC(=O)c1cn(C2CC2)c2cc(N3CCN(c4ccnc5cc(Cl)ccc45)CC3)c(F)cc2c1=O` [hybrid 10], the values for the IC50 in [4] and in [6] were 63.2 ± 1.2 nM and 25.5 ± 4.45 nM, respectively. Moreover, the “toxicity to mammalian and bacterial systems” value in data set [5] is “nontoxic”.

Take `C[C@@H]1CCC2[C@@H](C)[C@@H](CC(=O)N3CCN(c4cc5c(cc4F)c(=O)c(C(=O)O)cn5C4CC4)CC3)O[C@@H]3O[C@@]4(C)CCC1[C@@]23OO4` (stereo partly drawn) [Compound 12, 1-cyclopropyl-6-fluoro-4-oxo-7-(4-(2-((3R,6R,9R,10R,12R,12aR)-3,6,9-trimethyldecahydro-12H-3,12-epoxy[1,2]dioxepino[4,3-i]isochromen-10-yl)acetyl)piperazin-1-yl)-1,4-dihydroquinoline-3-carboxylic acid]: the melting point (in general, the temperature, or range, at which the solid turns liquid) lay within 123 to 124 °C. The IC50 in data set [7] was determined as 66100 nM. Besides, the IC50 in data set [8] (setting [10]) was determined as 14.8 nM. Besides, the “Selectivity Index (IC50 AB943/IC50 FcB1)” value in data set [8] is listed as 4453. In addition, in data set [9], the IC50 is 32.5 nM and the “Selectivity Index (IC50 AB943/IC50 Dd2)” value is given as 2034.

`CCCCOC(=O)c1cn(C2CC2)c2cc(N3CCN(C(=O)CCC(=O)O[C@@H]4O[C@@H]5O[C@@]6(C)CCC7[C@H](C)CCC([C@H]4C)[C@]75OO6)CC3)c(F)cc2c1=O` (stereo partly drawn) [Compound 22, Butyl 1-cyclopropyl-6-fluoro-4-oxo-7-(4-(4-oxo-4-(((3R,6R,9R,10S,12R,12aR)-3,6,9-trimethyldecahydro-12H-3,12-epoxy[1,2]dioxepino[4,3-i]isochromen-10-yl)oxy)butanoyl)piperazin-1-yl)-1,4-dihydroquinoline-3-carboxylate] yielded a melting point of 128.6 to 129.7 °C. This compound showed an IC50 in [7] of 38900 nM. Moreover, in data set [8] (setting [10]), the half-inhibitory concentration (IC50) came to 3.5 nM. Also, the IC50 in [8] (setting [11]) amounted to 3.5 nM. In addition, the “Selectivity Index (IC50 AB943/IC50 FcB1)” value in data set [8] is 11,303. In addition, in [9], the IC50 is 13 nM and the “Selectivity Index (IC50 AB943/IC50 Dd2)” value turned out to be 3002.

Regarding `CCCCOC(=O)c1cn(CC)c2cc(N3CCN(C(=O)C[C@H]4O[C@@H]5O[C@@]6(C)CCC7[C@H](C)CCC([C@H]4C)[C@]75OO6)CC3)c(F)cc2c1=O` (stereo partly drawn) [Compound 19, Butyl 1-ethyl-6-fluoro-4-oxo-7-(4-(2-((3R,6R,9R,10R,12R,12aR)-3,6,9-trimethyldecahydro-12H-3,12-epoxy[1,2]dioxepino[4,3-i]isochromen-10-yl)acetyl)piperazin-1-yl)-1,4-dihydroquinoline-3-carboxylate], the melting point lay within 151 to 152 °C. For the same compound, in data set [7], the IC50 is 18000 nM. The IC50 in [8] (setting [10]) amounted to 13.9 nM. The “Selectivity Index (IC50 AB943/IC50 FcB1)” value in [8] is 1294. For the same compound, in data set [9], the concentration for half-maximal inhibition (IC50) came to 38.4 nM and the “Selectivity Index (IC50 AB943/IC50 Dd2)” value amounted to 469.

Take `C[C@H]1[C@H](OC(=O)CCC(=O)O)O[C@@H]2O[C@@]3(C)CC[C@H]4[C@H](C)CC[C@@H]1[C@@]24OO3` [AS (46), artesunate, reference compound]: the IC50 in [7] is greater than 130000 nM; in data set [8] (setting [10]), 18.5 nM; in data set [8] (setting [11]) it was 4.5 nM; in data set [9], 41.9 nM. Besides, the “Selectivity Index (IC50 AB943/IC50 FcB1)” value in data set [8] is greater than 7042. Further, the “Selectivity Index (IC50 AB943/IC50 Dd2)” value in data set [9] is listed as greater than 3104. Moreover, the EC50 in data set [3] is 5.2 to 14.4 nM.

For the compound `C[C@@H]1CCC2[C@@H](C)[C@@H](CCC(=O)N3CCN(c4cc5c(cc4F)c(=O)c(C(=O)N4CCN(c6ccnc7cc(Cl)ccc67)CC4)cn5C4CC4)CC3)O[C@@H]3O[C@@]4(C)CCC1[C@@]23OO4` (stereo partly drawn) [Compound 26, 3-(4-(7-chloroquinolin-4-yl)piperazine-1-carbonyl)-1-cyclopropyl-6-fluoro-7-(4-(3-((3R,6R,9R,10R,12R,12aR)-3,6,9-trimethyldecahydro-12H-3,12-epoxy[1,2]dioxepino[4,3-i]isochromen-10-yl)propanoyl)piperazin-1-yl)quinolin-4(1H)-one], the melting point was 115 to 116 °C. Moreover, the 50% inhibitory concentration (IC50) in [7] is 36500 nM. For the same compound, in data set [8] (setting [10]), the IC50 is 13.7 nM. Moreover, the “Selectivity Index (IC50 AB943/IC50 FcB1)” value in data set [8] turned out to be 2668. For the same compound, in data set [9], the IC50 worked out at 41.5 nM and the “Selectivity Index (IC50 AB943/IC50 Dd2)” value is given as 880.
